Measurements reported in US20250249060A1, “APPLICATION METHOD OF ACTIVE PORTION OF LIGUSTICUM CHUANXIONG IN PREPARATION OF ANTI-GOUT DRUG” (Shaanxi University of Chinese Medicine, priority 2024, published 2025).

Legend:
serum XOD = target: T1, serum XOD (Rattus norvegicus, UniProt P22985); assay: Serum XOD activity in hyperuricemia rats; type: in vivo; details: model group 30 U/L
T1 construct: The activity of the serum XOD of hyperuricemia in rats is measured by using the colorimetry; from tissue; host or cells: serum of hyperuricemia rats
T1 sequence (P22985 whole entry): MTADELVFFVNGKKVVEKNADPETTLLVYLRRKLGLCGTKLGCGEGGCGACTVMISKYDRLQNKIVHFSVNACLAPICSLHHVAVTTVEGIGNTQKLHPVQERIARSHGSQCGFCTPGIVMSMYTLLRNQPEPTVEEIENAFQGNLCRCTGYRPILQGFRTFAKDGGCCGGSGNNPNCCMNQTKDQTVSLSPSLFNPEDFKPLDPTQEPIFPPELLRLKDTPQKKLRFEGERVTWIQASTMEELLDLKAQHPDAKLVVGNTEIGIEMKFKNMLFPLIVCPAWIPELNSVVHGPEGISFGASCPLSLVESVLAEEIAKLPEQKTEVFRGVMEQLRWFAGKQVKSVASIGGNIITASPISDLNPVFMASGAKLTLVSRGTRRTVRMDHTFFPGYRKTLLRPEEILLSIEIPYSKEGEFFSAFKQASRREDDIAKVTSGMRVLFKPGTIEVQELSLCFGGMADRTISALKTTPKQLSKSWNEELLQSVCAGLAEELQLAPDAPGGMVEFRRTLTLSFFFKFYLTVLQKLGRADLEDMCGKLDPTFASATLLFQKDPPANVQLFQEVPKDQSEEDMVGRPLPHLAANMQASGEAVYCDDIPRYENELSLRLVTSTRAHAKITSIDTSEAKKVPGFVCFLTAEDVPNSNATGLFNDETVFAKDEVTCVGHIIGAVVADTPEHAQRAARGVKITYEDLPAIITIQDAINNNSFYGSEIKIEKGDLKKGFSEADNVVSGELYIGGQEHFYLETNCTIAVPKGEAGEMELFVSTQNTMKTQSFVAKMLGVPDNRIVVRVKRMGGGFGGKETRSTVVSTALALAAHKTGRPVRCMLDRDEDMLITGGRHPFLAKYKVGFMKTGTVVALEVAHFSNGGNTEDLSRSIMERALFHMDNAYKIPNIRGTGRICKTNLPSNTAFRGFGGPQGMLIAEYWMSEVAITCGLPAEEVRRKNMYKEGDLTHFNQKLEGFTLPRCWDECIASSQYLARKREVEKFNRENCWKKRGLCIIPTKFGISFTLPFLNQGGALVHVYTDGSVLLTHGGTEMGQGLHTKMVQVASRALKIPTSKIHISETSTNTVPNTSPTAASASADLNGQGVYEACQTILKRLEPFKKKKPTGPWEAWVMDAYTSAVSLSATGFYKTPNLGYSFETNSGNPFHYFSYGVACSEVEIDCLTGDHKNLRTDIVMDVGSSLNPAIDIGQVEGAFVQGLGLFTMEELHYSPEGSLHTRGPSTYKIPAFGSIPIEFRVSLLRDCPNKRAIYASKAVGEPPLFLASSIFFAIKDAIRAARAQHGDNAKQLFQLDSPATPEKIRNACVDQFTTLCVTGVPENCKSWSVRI

hyperuricemia mice = assay: Serum uric acid level in hyperuricemia mice; type: in vivo; details: gavage 7 days
[1] = target: xanthine oxidase (XOD, or XO) (Homo sapiens, UniProt P47989); assay: Inhibitory effect of extracts/liquid-liquid extracts on XOD activity in vitro (96-well plate, absorbance at 295 nm); type: biochemical; details: tested samples as 1 mg/mL solution, allopurinol positive control 2 mg in 1 mL DMSO + 8 mL PBS
Chain of xanthine oxidase (XOD, or XO) (P47989 whole entry, species assumed): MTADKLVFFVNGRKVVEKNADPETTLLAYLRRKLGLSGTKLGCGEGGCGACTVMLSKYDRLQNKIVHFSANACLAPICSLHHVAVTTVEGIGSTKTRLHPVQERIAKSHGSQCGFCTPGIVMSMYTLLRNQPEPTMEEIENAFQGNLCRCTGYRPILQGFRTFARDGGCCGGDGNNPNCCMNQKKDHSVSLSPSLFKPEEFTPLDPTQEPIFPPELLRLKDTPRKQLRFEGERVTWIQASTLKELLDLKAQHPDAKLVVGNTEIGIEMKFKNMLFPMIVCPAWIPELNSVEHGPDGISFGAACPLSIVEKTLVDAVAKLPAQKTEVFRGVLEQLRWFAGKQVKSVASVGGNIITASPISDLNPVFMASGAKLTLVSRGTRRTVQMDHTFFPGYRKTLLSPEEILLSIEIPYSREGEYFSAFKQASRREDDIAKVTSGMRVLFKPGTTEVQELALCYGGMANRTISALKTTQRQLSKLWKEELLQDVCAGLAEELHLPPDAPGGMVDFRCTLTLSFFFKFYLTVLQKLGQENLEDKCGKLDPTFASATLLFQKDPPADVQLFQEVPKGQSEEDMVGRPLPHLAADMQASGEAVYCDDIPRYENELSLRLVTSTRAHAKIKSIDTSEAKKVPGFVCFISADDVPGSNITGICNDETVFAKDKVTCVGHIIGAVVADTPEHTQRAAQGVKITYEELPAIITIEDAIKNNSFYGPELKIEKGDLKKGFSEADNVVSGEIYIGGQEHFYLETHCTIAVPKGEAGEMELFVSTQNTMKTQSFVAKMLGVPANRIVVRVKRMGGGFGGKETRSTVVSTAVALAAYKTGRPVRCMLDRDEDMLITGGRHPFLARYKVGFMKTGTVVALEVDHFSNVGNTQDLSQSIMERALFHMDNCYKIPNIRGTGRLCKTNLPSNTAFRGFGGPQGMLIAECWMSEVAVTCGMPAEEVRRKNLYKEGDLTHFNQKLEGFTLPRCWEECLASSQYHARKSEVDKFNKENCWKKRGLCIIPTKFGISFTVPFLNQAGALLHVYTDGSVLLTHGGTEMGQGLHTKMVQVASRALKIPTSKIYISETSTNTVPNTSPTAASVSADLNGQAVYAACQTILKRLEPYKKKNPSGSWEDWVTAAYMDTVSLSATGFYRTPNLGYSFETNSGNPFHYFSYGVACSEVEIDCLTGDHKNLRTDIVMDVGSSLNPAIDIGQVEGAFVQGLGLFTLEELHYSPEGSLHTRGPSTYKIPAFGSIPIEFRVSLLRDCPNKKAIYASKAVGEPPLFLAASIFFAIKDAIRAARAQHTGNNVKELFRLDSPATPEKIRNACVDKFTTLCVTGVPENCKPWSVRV
Protocol: 2.1 Buffer solution preparation: 0.4780 g of potassium phosphate monobasic (KH2PO4), 3.473 g of dipotassium hydrogen phosphate trihydrate (K2HPO4·3H2O) and 10.00 milligrams (mg) of ethylenediaminetetraacetic acid disodium salt (EDTA-2Na) are accurately weighed, and then placed in a 250 mL volumetric flask, and diluted to volume with distilled water to obtain the buffer solution. 2.2 Substrate preparation: 3.65 mg of xanthine is accurately weighed, and then added into the buffer solution to dilute to volume of 50 mL, and the xanthine is dissolved with ultrasound to obtain the substrate. 2.3 Enzyme solution preparation: XOD (5 units abbreviated as U) is taken and diluted with 50 mL of the buffer solution to obtain a diluted solution, and the diluted solution is subpackaged in sample bottles to obtain the enzyme solution, and kept in a temperature of −70 Celsius degree (° C.) for later use. […] After that the solution is filtered with a microporous filter membrane to obtain the samples to be tested for later use. 2.6 XOD activity determination: […] […] 2.8 A half maximal inhibitory concentration (IC50) value measurement: the active portion is prepared into 7 series concentrations to explore a dose-effect relationship based on results of the activity test, and IC50 value of the active portion is calculated through a GraphPad prism 8 software.

[2] = Body weight gain of mice before and after treatment; details: allopurinol 40 mg/kg·d, colchicine 1 mg/kg·d, extract 500 mg/kg·d
[3] = test system: acute gouty arthritis mice; assay: Paw swelling degree in MSU-induced acute gouty arthritis mice; type: in vivo
Protocol: Livers of the mice are taken and kept in a temperature of −80° C. for later use. The normal control group of mice is injected with 0.1 mL of physiological saline onto right foot pad of the mice after 1 h gavage on the 7th day. […] 0 h, 4 h, 8 h, 12 h and 24 h after the MSU crystal suspension injection, paw volumes of the mice are measured by using the paw volume measuring instrument, the paw swelling degrees of the mice are calculated, and the calculation formula is as follows: [formula] • where Ct represents a paw volume at different time points after injection, and Co represents a paw volume at 0 h after injection.

Compound | serum XOD activity compared to the model group (serum XOD) | decrease of serum uric acid level compared to the model group (hyperuricemia mice) | serum uric acid level (hyperuricemia mice; model 286.82 μmol/L) | inhibition rate on activity of the XOD [1] | weight gain compared to the normal control group [2] | decrease of paw swelling degree compared with the model group ([3]; 24 h after MSU injection) | decrease of paw swelling degree compared with the model group ([3]; at 4 h, 8 h, 12 h and 24 h)
Oc1ncnc2[nH]ncc12 [allopurinol] | significantly decreases | 75.16% | 68.72 µmol/L | 96.78% |  |  | 
COc1cc2c(c(OC)c1OC)-c1ccc(OC)c(=O)cc1[C@@H](NC(C)=O)CC2 [colchicine] |  |  |  |  | significantly lower | 15.32% | more than 9%
